Test results taken from BigSolDB 2.1.

N#CCc1ccccc1[N+](=O)[O-]
Settings | solubility (mole fraction)
in 1,4-dioxane, 288.15 K | 0.216
in 1,4-dioxane, 293.15 K | 0.226
in 1,4-dioxane, 298.15 K | 0.241
in 1,4-dioxane, 303.15 K | 0.257
in 1,4-dioxane, 308.15 K | 0.278
in 1,4-dioxane, 313.15 K | 0.303
in 1,4-dioxane, 318.15 K | 0.334
in 1,4-dioxane, 323.15 K | 0.371
in 1,4-dioxane, 328.15 K | 0.414
in 1,4-dioxane, 333.15 K | 0.469
in 2-butanone, 278.15 K | 0.108
in 2-butanone, 283.15 K | 0.128
in 2-butanone, 288.15 K | 0.151
in 2-butanone, 293.15 K | 0.173
in 2-butanone, 298.15 K | 0.197
in 2-butanone, 303.15 K | 0.235
in 2-butanone, 308.15 K | 0.269
in 2-butanone, 313.15 K | 0.312
in 2-butanone, 318.15 K | 0.357
in 2-butanone, 323.15 K | 0.422
in 2-butanone, 328.15 K | 0.475
in 2-butanone, 333.15 K | 0.543
in acetic acid, 293.15 K | 0.0478
in acetic acid, 298.15 K | 0.0574
in acetic acid, 303.15 K | 0.0694
in acetic acid, 308.15 K | 0.0846
in acetic acid, 313.15 K | 0.104
in acetic acid, 318.15 K | 0.128
in acetic acid, 323.15 K | 0.158
in acetic acid, 328.15 K | 0.196
in acetic acid, 333.15 K | 0.244
in acetone, 278.15 K | 0.13
in acetone, 283.15 K | 0.147
in acetone, 288.15 K | 0.171
in acetone, 293.15 K | 0.194
in acetone, 298.15 K | 0.227
in acetone, 303.15 K | 0.259
in acetone, 308.15 K | 0.295
in acetone, 313.15 K | 0.342
in acetone, 318.15 K | 0.385
in acetone, 323.15 K | 0.439
in acetone, 328.15 K | 0.506
in acetonitrile, 278.15 K | 0.0932
in acetonitrile, 283.15 K | 0.107
in acetonitrile, 288.15 K | 0.124
in acetonitrile, 293.15 K | 0.143
in acetonitrile, 298.15 K | 0.168
in acetonitrile, 303.15 K | 0.195
in acetonitrile, 308.15 K | 0.228
in acetonitrile, 313.15 K | 0.264
in acetonitrile, 318.15 K | 0.31
in acetonitrile, 323.15 K | 0.362
in acetonitrile, 328.15 K | 0.424
in acetonitrile, 333.15 K | 0.498
in ethanol, 278.15 K | 0.00458
in ethanol, 283.15 K | 0.00566
in ethanol, 288.15 K | 0.00705
in ethanol, 293.15 K | 0.00939
in ethanol, 298.15 K | 0.0118
in ethanol, 303.15 K | 0.0156
in ethanol, 308.15 K | 0.0213
in ethanol, 313.15 K | 0.0277
in ethanol, 318.15 K | 0.0383
in ethanol, 323.15 K | 0.0487
in ethanol, 328.15 K | 0.0649
in ethanol, 333.15 K | 0.0838
in ethyl acetate, 278.15 K | 0.13
in ethyl acetate, 283.15 K | 0.142
in ethyl acetate, 288.15 K | 0.16
in ethyl acetate, 293.15 K | 0.177
in ethyl acetate, 298.15 K | 0.199
in ethyl acetate, 303.15 K | 0.219
in ethyl acetate, 308.15 K | 0.246
in ethyl acetate, 313.15 K | 0.278
in ethyl acetate, 318.15 K | 0.313
in ethyl acetate, 323.15 K | 0.357
in ethyl acetate, 328.15 K | 0.407
in ethyl acetate, 333.15 K | 0.466
in ethylbenzene, 278.15 K | 0.0237
in ethylbenzene, 283.15 K | 0.0285
in ethylbenzene, 288.15 K | 0.0346
in ethylbenzene, 293.15 K | 0.0423
in ethylbenzene, 298.15 K | 0.052
in ethylbenzene, 303.15 K | 0.0644
in ethylbenzene, 308.15 K | 0.0803
in ethylbenzene, 313.15 K | 0.101
in ethylbenzene, 318.15 K | 0.126
in ethylbenzene, 323.15 K | 0.16
in ethylbenzene, 328.15 K | 0.204
in ethylbenzene, 333.15 K | 0.26
in isobutanol, 278.15 K | 0.00332
in isobutanol, 283.15 K | 0.00416
in isobutanol, 288.15 K | 0.00491
in isobutanol, 293.15 K | 0.00639
in isobutanol, 298.15 K | 0.00803
in isobutanol, 303.15 K | 0.0102
in isobutanol, 308.15 K | 0.013
in isobutanol, 313.15 K | 0.0171
in isobutanol, 318.15 K | 0.0228
in isobutanol, 323.15 K | 0.0303
in isobutanol, 328.15 K | 0.0404
in isobutanol, 333.15 K | 0.0546
in isopropanol, 278.15 K | 0.00411
in isopropanol, 283.15 K | 0.00484
in isopropanol, 288.15 K | 0.00579
in isopropanol, 293.15 K | 0.00751
in isopropanol, 298.15 K | 0.00982
in isopropanol, 303.15 K | 0.0132
in isopropanol, 308.15 K | 0.0177
in isopropanol, 313.15 K | 0.0228
in isopropanol, 318.15 K | 0.03
in isopropanol, 323.15 K | 0.0384
in isopropanol, 328.15 K | 0.0492
in isopropanol, 333.15 K | 0.0627
in methanol, 278.15 K | 0.00641
in methanol, 283.15 K | 0.00842
in methanol, 288.15 K | 0.0105
in methanol, 293.15 K | 0.0131
in methanol, 298.15 K | 0.0174
in methanol, 303.15 K | 0.0235
in methanol, 308.15 K | 0.0305
in methanol, 313.15 K | 0.0395
in methanol, 318.15 K | 0.0514
in methanol, 323.15 K | 0.0661
in methanol, 328.15 K | 0.0842
in methanol, 333.15 K | 0.108
in n-butanol, 278.15 K | 0.00351
in n-butanol, 283.15 K | 0.00437
in n-butanol, 288.15 K | 0.00569
in n-butanol, 293.15 K | 0.00731
in n-butanol, 298.15 K | 0.00969
in n-butanol, 303.15 K | 0.0129
in n-butanol, 308.15 K | 0.0175
in n-butanol, 313.15 K | 0.0223
in n-butanol, 318.15 K | 0.0293
in n-butanol, 323.15 K | 0.0383
in n-butanol, 328.15 K | 0.0491
in n-butanol, 333.15 K | 0.0624
in n-propanol, 278.15 K | 0.00412
in n-propanol, 283.15 K | 0.00553
in n-propanol, 288.15 K | 0.00681
in n-propanol, 293.15 K | 0.00917
in n-propanol, 298.15 K | 0.0115
in n-propanol, 303.15 K | 0.0151
in n-propanol, 308.15 K | 0.0196
in n-propanol, 313.15 K | 0.0254
in n-propanol, 318.15 K | 0.0333
in n-propanol, 323.15 K | 0.0426
in n-propanol, 328.15 K | 0.0544
in n-propanol, 333.15 K | 0.0685
in toluene, 278.15 K | 0.0293
in toluene, 283.15 K | 0.0371
in toluene, 288.15 K | 0.0471
in toluene, 293.15 K | 0.0613
in toluene, 298.15 K | 0.0738
in toluene, 303.15 K | 0.0968
in toluene, 308.15 K | 0.123
in toluene, 313.15 K | 0.153
in toluene, 318.15 K | 0.195
in toluene, 323.15 K | 0.241
in toluene, 328.15 K | 0.303
in toluene, 333.15 K | 0.377
in water, 278.15 K | 3.75e-05
in water, 283.15 K | 4.65e-05
in water, 288.15 K | 5.57e-05
in water, 293.15 K | 6.69e-05
in water, 298.15 K | 8.19e-05
in water, 303.15 K | 0.000102
in water, 308.15 K | 0.000125
in water, 313.15 K | 0.000153
in water, 318.15 K | 0.000186
in water, 323.15 K | 0.000225
in water, 328.15 K | 0.000274
in water, 333.15 K | 0.000333
